What was measured:
[1] = DRUGMATRIX: Potassium Channel [KATP] radioligand binding (ligand: [3H] Glyburide); assay type: cell membranes, Membrane; conditions: hit-t15, Not Active = under 50% inhibition at 10 µM
[2] = DRUGMATRIX: ATPase, Na+/K+ enzyme inhibition (substrate: ATP); assay type: tissue-based, Sus scrofa, Heart; conditions: Not Active = under 50% inhibition at 10 µM
[3] = target: T1, Alpha-1B adrenergic receptor (Rattus norvegicus, UniProt P15823); experiment: DRUGMATRIX: Alpha-1B adrenergic receptor radioligand binding (ligand: prazosin); assay type: cell membranes, Wistar, Liver, Membrane; conditions: Not Active = under 50% inhibition at 10 µM
T1 sequence (P15823 whole entry): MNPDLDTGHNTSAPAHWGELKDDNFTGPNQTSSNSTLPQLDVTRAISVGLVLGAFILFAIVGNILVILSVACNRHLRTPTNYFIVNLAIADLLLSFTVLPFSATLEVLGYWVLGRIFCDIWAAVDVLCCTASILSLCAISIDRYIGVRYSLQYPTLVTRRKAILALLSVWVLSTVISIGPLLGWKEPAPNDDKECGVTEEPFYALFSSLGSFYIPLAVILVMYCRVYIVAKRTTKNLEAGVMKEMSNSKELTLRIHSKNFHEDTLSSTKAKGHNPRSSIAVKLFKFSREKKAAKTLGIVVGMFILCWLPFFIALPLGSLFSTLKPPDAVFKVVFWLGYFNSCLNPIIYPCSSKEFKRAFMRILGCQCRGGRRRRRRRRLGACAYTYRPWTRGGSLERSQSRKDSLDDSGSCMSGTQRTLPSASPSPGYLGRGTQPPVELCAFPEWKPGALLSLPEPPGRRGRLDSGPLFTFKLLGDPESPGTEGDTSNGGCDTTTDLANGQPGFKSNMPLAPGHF

[4] = DRUGMATRIX: Calcium Channel Type L, Benzothiazepine radioligand binding (ligand: [3H] Diltiazem); assay type: cell membranes, Rattus norvegicus, Wistar, Brain, Membrane; conditions: Not Active = under 50% inhibition at 10 µM
[5] = target: T2, Receptor-type tyrosine-protein phosphatase C (Homo sapiens, UniProt P08575); set-up: species or system Escherichia coli;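 also: inhibition of CD45 enzyme activity measured using DiFMUP as substrate; in other assays of this panel Not Active means under 50% inhibition at 10 µM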
T2 sequence (P08575 whole entry): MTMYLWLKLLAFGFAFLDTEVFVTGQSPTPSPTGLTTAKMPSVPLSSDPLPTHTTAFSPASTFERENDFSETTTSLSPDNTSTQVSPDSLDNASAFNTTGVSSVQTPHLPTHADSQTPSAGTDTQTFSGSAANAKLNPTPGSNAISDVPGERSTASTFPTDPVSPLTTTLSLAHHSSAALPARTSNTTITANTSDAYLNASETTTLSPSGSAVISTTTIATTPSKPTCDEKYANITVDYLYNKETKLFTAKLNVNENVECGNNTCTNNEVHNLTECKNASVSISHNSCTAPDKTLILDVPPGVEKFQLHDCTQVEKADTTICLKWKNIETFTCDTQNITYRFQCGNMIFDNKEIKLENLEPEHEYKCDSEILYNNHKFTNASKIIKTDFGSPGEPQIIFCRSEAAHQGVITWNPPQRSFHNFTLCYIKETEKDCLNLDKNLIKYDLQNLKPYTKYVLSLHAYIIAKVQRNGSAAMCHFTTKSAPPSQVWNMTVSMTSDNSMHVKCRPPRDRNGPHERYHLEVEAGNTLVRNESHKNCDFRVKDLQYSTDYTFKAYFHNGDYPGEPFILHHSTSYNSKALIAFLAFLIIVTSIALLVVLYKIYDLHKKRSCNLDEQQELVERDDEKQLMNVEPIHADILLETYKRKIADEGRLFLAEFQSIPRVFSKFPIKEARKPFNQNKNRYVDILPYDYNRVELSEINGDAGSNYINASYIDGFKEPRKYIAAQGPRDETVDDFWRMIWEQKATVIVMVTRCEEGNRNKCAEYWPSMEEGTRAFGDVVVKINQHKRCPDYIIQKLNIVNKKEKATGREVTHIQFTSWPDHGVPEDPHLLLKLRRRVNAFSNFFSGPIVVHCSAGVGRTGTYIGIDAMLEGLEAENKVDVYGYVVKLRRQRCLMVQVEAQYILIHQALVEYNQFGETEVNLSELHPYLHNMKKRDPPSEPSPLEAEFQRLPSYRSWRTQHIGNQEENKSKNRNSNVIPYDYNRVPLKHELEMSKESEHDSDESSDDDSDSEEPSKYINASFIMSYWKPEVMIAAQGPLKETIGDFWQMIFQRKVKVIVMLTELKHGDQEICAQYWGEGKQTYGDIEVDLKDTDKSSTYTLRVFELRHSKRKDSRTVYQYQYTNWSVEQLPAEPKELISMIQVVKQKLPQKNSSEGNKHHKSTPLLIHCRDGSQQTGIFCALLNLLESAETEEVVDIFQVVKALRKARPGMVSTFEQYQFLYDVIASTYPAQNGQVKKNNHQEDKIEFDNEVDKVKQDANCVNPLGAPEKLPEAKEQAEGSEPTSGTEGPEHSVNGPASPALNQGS

Melanocortin receptor 4 = Melanocortin receptor 4 (Homo sapiens, UniProt P32245); assay type: cell membranes, Membrane; conditions: hek293; also: in other assays of this panel Not Active means under 50% inhibition at 10 µM
Melanocortin receptor 4, sequence (P32245 whole entry): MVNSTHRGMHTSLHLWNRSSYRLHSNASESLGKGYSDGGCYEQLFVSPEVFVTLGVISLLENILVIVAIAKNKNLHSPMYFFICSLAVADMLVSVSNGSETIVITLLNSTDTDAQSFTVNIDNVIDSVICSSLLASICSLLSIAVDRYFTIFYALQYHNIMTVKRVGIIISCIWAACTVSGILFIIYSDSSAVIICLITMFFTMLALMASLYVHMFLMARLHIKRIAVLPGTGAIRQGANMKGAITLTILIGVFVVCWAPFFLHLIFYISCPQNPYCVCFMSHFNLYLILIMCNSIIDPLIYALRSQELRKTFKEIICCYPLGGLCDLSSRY

Molecule | IC50 [1] | Ki [1] | IC50 [2] | Ki [2] | IC50 [3] | IC50 [4] | Ki [4] | IC50 [5] | IC50 (Melanocortin receptor 4) | Ki [3] | Ki [5] | Ki (Melanocortin receptor 4) | IC50 ([4]; read-out: IC50) [µM] | Ki ([4]; read-out: Ki) [µM] | IC50 ([1]; read-out: IC50) [µM] | Ki ([1]; read-out: Ki) [µM]
CCOC(=O)[C@H](CCc1ccccc1)N[C@@H](C)C(=O)N1CCC[C@H]1C(=O)O | Not Active | Not Active | Not Active | Not Active | Not Active | Not Active | Not Active | Not Active | Not Active |  |  |  |  |  |  | 
POLYVINYL ALCOHOL | Not Active | Not Active | Not Active | Not Active | Not Active | Not Active | Not Active | Not Active | Not Active | Not Active | Not Active | Not Active |  |  |  | 
CCC[C@@H]1C[C@@H](C(=O)N[C@@H]([C@H]2O[C@H](SC)[C@H](O)[C@@H](O)[C@H]2O)[C@H](C)Cl)N(C)C1 [CLINDAMYCIN] | Not Active | Not Active | Not Active | Not Active | Not Active | Not Active | Not Active | Not Active | Not Active |  |  |  |  |  |  | 
CN(Cc1cnc2nc(N)nc(N)c2n1)c1ccc(C(=O)N[C@@H](CCC(=O)O)C(=O)O)cc1 [METHOTREXATE] | Not Active | Not Active | Not Active | Not Active | Not Active | Not Active | Not Active | Not Active | Not Active |  |  |  |  |  |  | 
CO[C@@]1(NC(=O)CSCC#N)C(=O)N2C(C(=O)O)=C(CSc3nnnn3C)CS[C@@H]21 [CEFMETAZOLE] | Not Active | Not Active | Not Active | Not Active | Not Active | Not Active | Not Active | Not Active | Not Active |  |  |  |  |  |  | 
C[C@@H]1CC[C@H]2[C@@H](C)C(=O)O[C@@H]3O[C@@]4(C)CC[C@@H]1[C@]32OO4 [ARTEMISININ] | Not Active | Not Active | Not Active | Not Active | Not Active | Not Active | Not Active | Not Active | Not Active |  |  |  |  |  |  | 
CC(C(=O)O)c1ccc(CC2CCCC2=O)cc1 (stereo not drawn) [LOXOPROFEN] | Not Active | Not Active | Not Active | Not Active | Not Active | Not Active | Not Active | Not Active | Not Active |  |  |  |  |  |  | 
CCCCCC[C@H]1C(=O)O[C@H](C)[C@H](NC(=O)c2cccc(NC=O)c2O)C(=O)O[C@@H](C)[C@@H]1OC(=O)CC(C)C [ANTIMYCIN A] | Not Active | Not Active | Not Active | Not Active | Not Active | Not Active | Not Active | Not Active | Not Active |  |  |  |  |  |  | 
C#C[C@]1(O)CC[C@H]2[C@@H]3CCc4cc(O)ccc4[C@H]3CC[C@@]21C [ETHINYL ESTRADIOL] | Not Active | Not Active | Not Active | Not Active | Not Active |  |  | Not Active | Not Active |  |  |  | 15.4 | 13.7 |  | 
CC[C@H]1OC(=O)[C@H](C)[C@@H](O[C@H]2C[C@@](C)(OC)[C@@H](O)[C@H](C)O2)[C@H](C)[C@@H](O[C@@H]2O[C@H](C)C[C@H](N(C)C)[C@H]2O)[C@](C)(O)C[C@@H](C)CN(C)[C@H](C)[C@@H](O)[C@]1(C)O [AZITHROMYCIN] | Not Active | Not Active | Not Active | Not Active | Not Active | Not Active | Not Active | Not Active | Not Active |  |  |  |  |  |  | 
COc1ccc2cc(CCC(C)=O)ccc2c1 [NABUMETONE] | Not Active | Not Active | Not Active | Not Active | Not Active | Not Active | Not Active | Not Active | Not Active |  |  |  |  |  |  | 
CCCCC1C(=O)N(c2ccccc2)N(c2ccccc2)C1=O [PHENYLBUTAZONE] | Not Active | Not Active | Not Active | Not Active | Not Active | Not Active | Not Active | Not Active | Not Active |  |  |  |  |  |  | 
C=C1/C(=C\C=C2/CCC[C@]3(C)[C@@H]([C@H](C)CCCC(C)C)CC[C@@H]23)C[C@@H](O)C[C@@H]1O [ALFACALCIDOL] | Not Active | Not Active | Not Active | Not Active | Not Active | Not Active | Not Active | Not Active | Not Active |  |  |  |  |  |  | 
NC(=O)N1c2ccccc2C=Cc2ccccc21 [CARBAMAZEPINE] | Not Active | Not Active | Not Active | Not Active | Not Active | Not Active | Not Active | Not Active | Not Active |  |  |  |  |  |  | 
COc1ccc(Cc2nccc3cc(OC)c(OC)cc23)cc1OC [PAPAVERINE] | Not Active | Not Active | Not Active | Not Active | Not Active | Not Active | Not Active | Not Active | Not Active |  |  |  |  |  |  | 
CNC(=C[N+](=O)[O-])NCCSCc1csc(CN(C)C)n1 [NIZATIDINE] | Not Active | Not Active | Not Active | Not Active | Not Active | Not Active | Not Active | Not Active | Not Active |  |  |  |  |  |  | 
COc1ccccc1OCC(O)CO (stereo not drawn) [GUAIFENESIN] | Not Active | Not Active | Not Active | Not Active | Not Active | Not Active | Not Active | Not Active | Not Active |  |  |  |  |  |  | 
O=C(c1ccccc1Cl)N1CCC(Cc2ccccc2)CC1 | Not Active | Not Active | Not Active | Not Active | Not Active | Not Active | Not Active | Not Active | Not Active |  |  |  |  |  |  | 
N=C(N)N/N=C/c1c(Cl)cccc1Cl [GUANABENZ] | Not Active | Not Active | Not Active | Not Active |  | Not Active | Not Active | Not Active | Not Active |  |  |  |  |  |  | 
Cc1cnc(C(=O)NCCc2ccc(S(=O)(=O)NC(=O)NC3CCCCC3)cc2)cn1 [GLIPIZIDE] |  |  | Not Active | Not Active | Not Active | Not Active | Not Active |  | Not Active |  |  |  |  |  | 0.398 | 0.045
CC[C@H](C)C(=O)O[C@H]1C[C@@H](C)C=C2C=C[C@H](C)[C@H](CC[C@@H]3C[C@@H](O)CC(=O)O3)[C@H]21 [LOVASTATIN] |  |  | Not Active | Not Active | Not Active | Not Active | Not Active | Not Active | Not Active |  |  |  |  |  |  | 

— ChEMBL document CHEMBL1909046, “DrugMatrix in vitro pharmacology data”
